# Assay results taken from US10935560B2, “Method and kit for identifying lupus anticoagulant (LA) associated with antiphospholipid syndrome” (Instrumentation Laboratory Company, priority 2016, dated 2021).
# “Also recorded” adds a separate entry of the source.
# Columns and labels:
# Type in all cases: biochemical, human
# [1] = tested on: patient plasma samples (LA negative, factor deficient, LA positive); test: HemosIL dRVVT Screen and dRVVT Confirm in the presence of PPACK, 1:1 mixing study setting, patient samples; settings: 350 nM PPACK
# Text: (§1) The results of the LA screening assays are expressed by Screen Ratio (Rs), an assay done in the presence of low levels of phospholipid, Confirm Ratio (Re), an assay done in the presence of elevated levels of phospholipid, Screen-to-Confirm Ratio (R) and Normalized Screen-to-Confirm Ratio (NR) defined as follows: […]
# For each of the assays above, irrespective of the clotting inhibitor used in the assay, the measured screen assay clotting time of a patient sample is compared to the measured screen assay clotting time of normal platelet poor plasma and expressed as a ratio (Rs). Additionally, the measured confirm assay clotting time of a patient sample is compared to the measured confirm assay clotting time of normal platelet poor plasma and expressed as a ratio (Rc). A normalized ratio (NR) is expressed as Rs/Rc. The NR is compared to a cutoff ratio established from normal, healthy subjects. […]
# The study reported the normalized ratio correctly for all plasma samples and addressed issues with factor deficiency (Table 2).
# [2] = tested on: LA positive plasma sample; test: APTT-based silica clotting time (SCT Screen / SCT Confirm) assay, 1:1 mixing study
# Text: as §1
# (§2) For each of the assays above, irrespective of the clotting inhibitor used in the assay, the measured screen assay clotting time of a patient sample is compared to the measured screen assay clotting time of normal platelet poor plasma and expressed as a ratio (Rs). Additionally, the measured confirm assay clotting time of a patient sample is compared to the measured confirm assay clotting time of normal platelet poor plasma and expressed as a ratio (Rc). A normalized ratio (NR) is expressed as Rs/Rc. The NR is compared to a cutoff ratio established from normal, healthy subjects.
# (§3) D-phenylalanyl-1-prolyl-1-arginine-chloromethyl ketone (PPACK) is a synthetic peptide that irreversibly binds to the catalytic site of thrombin. Referring to FIGS. 1-3, the use of PPACK in an SCT assay is shown where a plasma test sample was mixed with a LA negative plasma sample pool in a 1:1 ratio during testing (i.e., in a mixing study setting). By a mixing study, clotting factors that are present in normal plasma are added to the test plasma suspected of having a coagulation disorder.
# (§4) Referring to FIGS. 1A-B, while the effect of PPACK on SCT Screen and SCT Confirm is similar for the LA negative sample, PPACK has much greater impact on SCT Screen than on SCT Confirm for the LA positive samples.
# The effect of PPACK on LA detection is further analyzed on the LA positive sample diluted with LA negative sample in different ratios (1:1 and 1:3 of LA positive: LA Negative). When the LA positive sample was diluted 4-fold with LA negative sample, the LA was not detectable in the absence of PPACK (NR: […]) thereby underscoring the increased sensitivity of the method disclosed herein.
# [3] = tested on: LA negative sample (platelet poor NPP); test: as above; settings: for Screen-to-Confirm Ratio (R) of SCT Assay: LA negative sample
# Text: as §1, §2, §3, §4
# [4] = tested on: normal pooled plasma (NPP); test: dRVVT Screen / dRVVT Confirm test, 1:1 mixing study
# Text: as §1, §2
# [5] = tested on: LA positive plasma sample; test: as above; settings: for NR of dRVVT test: 1000 ng/ml PPACK
# Text: as §1, §2
# [6] = sample 0114 LA NEG, LA Negative Pool
# [7] = sample 0114 S03, FVIIIDef (con)
# [8] = sample 0114 S04, FVIIIDef (con)
# [9] = sample 0114 S05, FVIII (con)/vWF Def
# [10] = sample 0114 S06, FVIII (con)/vWF Def
compound,measurement,setting,value
D-phenylalanyl-1-prolyl-1-arginine-chloromethyl ketone [PPACK],Confirm,[1]; [6],50.4 s
same,Confirm (Rc),[1]; [6],1.00
same,S/C (NR),[1]; [6],1.00
same,S/C (R),[1]; [6],0.98
same,Screen,[1]; [6],49.6 s
same,Screen (Rs),[1]; [6],1.00
same,Confirm,"[1]; sample 0114 S01, FVDef (con)",62.8 s
same,Confirm (Rc),"[1]; sample 0114 S01, FVDef (con)",1.25
same,S/C (NR),"[1]; sample 0114 S01, FVDef (con)",1.02
same,S/C (R),"[1]; sample 0114 S01, FVDef (con)",1.01
same,Screen,"[1]; sample 0114 S01, FVDef (con)",63.3 s
same,Screen (Rs),"[1]; sample 0114 S01, FVDef (con)",1.28
same,Confirm,"[1]; sample 0114 S02, FVDef (con)",54.2 s
same,Confirm (Rc),"[1]; sample 0114 S02, FVDef (con)",1.08
same,S/C (NR),"[1]; sample 0114 S02, FVDef (con)",0.88
same,S/C (R),"[1]; sample 0114 S02, FVDef (con)",0.87
same,Screen,"[1]; sample 0114 S02, FVDef (con)",46.9 s
same,Screen (Rs),"[1]; sample 0114 S02, FVDef (con)",0.95
same,Confirm,[1]; [7],47.9 s
same,Confirm (Rc),[1]; [7],0.95
same,S/C (NR),[1]; [7],1.05
same,S/C (R),[1]; [7],1.04
same,Screen,[1]; [7],49.7 s
same,Screen (Rs),[1]; [7],1.00
same,Confirm,[1]; [8],48.5 s
same,Confirm (Rc),[1]; [8],0.96
same,S/C (NR),[1]; [8],1.03
same,S/C (R),[1]; [8],1.02
same,Screen,[1]; [8],49.3 s
same,Screen (Rs),[1]; [8],0.99
same,Confirm,[1]; [9],49.2 s
same,Confirm (Rc),[1]; [9],0.98
same,S/C (NR),[1]; [9],1.00
same,S/C (R),[1]; [9],0.98
same,Screen,[1]; [9],48.4 s
same,Screen (Rs),[1]; [9],0.98
same,Confirm,[1]; [10],48.9 s
same,Confirm (Rc),[1]; [10],0.97
same,S/C (NR),[1]; [10],1.01
same,S/C (R),[1]; [10],0.99
same,Screen,[1]; [10],48.6 s
same,Screen (Rs),[1]; [10],0.98
same,Confirm,"[1]; sample 0114 S07, FIXDef (con)",50.5 s
same,Confirm (Rc),"[1]; sample 0114 S07, FIXDef (con)",1.00
same,S/C (NR),"[1]; sample 0114 S07, FIXDef (con)",0.97
same,S/C (R),"[1]; sample 0114 S07, FIXDef (con)",0.95
same,Screen,"[1]; sample 0114 S07, FIXDef (con)",41.1 s
same,Screen (Rs),"[1]; sample 0114 S07, FIXDef (con)",0.97
same,Confirm,"[1]; sample 0114 S08, FIXDef (con)",48.9 s
same,Confirm (Rc),"[1]; sample 0114 S08, FIXDef (con)",0.97
same,S/C (NR),"[1]; sample 0114 S08, FIXDef (con)",1.01
same,S/C (R),"[1]; sample 0114 S08, FIXDef (con)",0.99
same,Screen,"[1]; sample 0114 S08, FIXDef (con)",48.5 s
same,Screen (Rs),"[1]; sample 0114 S08, FIXDef (con)",0.98
same,Confirm,"[1]; sample 0114 S09, FXDef (con)",59.2 s
same,Confirm (Rc),"[1]; sample 0114 S09, FXDef (con)",1.17
same,S/C (NR),"[1]; sample 0114 S09, FXDef (con)",1.04
same,S/C (R),"[1]; sample 0114 S09, FXDef (con)",1.03
same,Screen,"[1]; sample 0114 S09, FXDef (con)",60.7 s
same,Screen (Rs),"[1]; sample 0114 S09, FXDef (con)",1.22
same,Confirm,"[1]; sample 0114 S10, FXDef (con)",51.4 s
same,Confirm (Rc),"[1]; sample 0114 S10, FXDef (con)",1.02
same,S/C (NR),"[1]; sample 0114 S10, FXDef (con)",1.01
same,S/C (R),"[1]; sample 0114 S10, FXDef (con)",0.99
same,Screen,"[1]; sample 0114 S10, FXDef (con)",51.1 s
same,Screen (Rs),"[1]; sample 0114 S10, FXDef (con)",1.03
same,Confirm,"[1]; sample 0114 S11, FXIDef (con)",49.7 s
same,Confirm (Rc),"[1]; sample 0114 S11, FXIDef (con)",0.99
same,S/C (NR),"[1]; sample 0114 S11, FXIDef (con)",1.00
same,S/C (R),"[1]; sample 0114 S11, FXIDef (con)",0.98
same,Screen,"[1]; sample 0114 S11, FXIDef (con)",48.8 s
same,Screen (Rs),"[1]; sample 0114 S11, FXIDef (con)",0.98
same,Confirm,"[1]; sample 0114 S12, FXIDef (con)",47.7 s
same,Confirm (Rc),"[1]; sample 0114 S12, FXIDef (con)",0.95
same,S/C (NR),"[1]; sample 0114 S12, FXIDef (con)",1.00
same,S/C (R),"[1]; sample 0114 S12, FXIDef (con)",0.98
same,Screen,"[1]; sample 0114 S12, FXIDef (con)",46.8 s
same,Screen (Rs),"[1]; sample 0114 S12, FXIDef (con)",0.94
same,Confirm,"[1]; sample 0114 S13, FXIIDef (con)",45.3 s
same,Confirm (Rc),"[1]; sample 0114 S13, FXIIDef (con)",0.90
same,S/C (NR),"[1]; sample 0114 S13, FXIIDef (con)",1.01
same,S/C (R),"[1]; sample 0114 S13, FXIIDef (con)",0.99
same,Screen,"[1]; sample 0114 S13, FXIIDef (con)",44.9 s
same,Screen (Rs),"[1]; sample 0114 S13, FXIIDef (con)",0.91
same,Confirm,"[1]; sample 0114 S14, FXIIDef (acq)",53.4 s
same,Confirm (Rc),"[1]; sample 0114 S14, FXIIDef (acq)",1.06
same,S/C (NR),"[1]; sample 0114 S14, FXIIDef (acq)",0.94
same,S/C (R),"[1]; sample 0114 S14, FXIIDef (acq)",0.93
same,Screen,"[1]; sample 0114 S14, FXIIDef (acq)",49.4 s
same,Screen (Rs),"[1]; sample 0114 S14, FXIIDef (acq)",1.00
same,Confirm,"[1]; sample 0114 S15, LA Postive",49.7 s
same,Confirm (Rc),"[1]; sample 0114 S15, LA Postive",0.99
same,S/C (NR),"[1]; sample 0114 S15, LA Postive",2.49
same,S/C (R),"[1]; sample 0114 S15, LA Postive",2.45
same,Screen,"[1]; sample 0114 S15, LA Postive",121.8 s
same,Screen (Rs),"[1]; sample 0114 S15, LA Postive",2.46
same,Confirm,"[1]; sample 0114 S16, LA Postive",51.7 s
same,Confirm (Rc),"[1]; sample 0114 S16, LA Postive",1.03
same,S/C (NR),"[1]; sample 0114 S16, LA Postive",2.70
same,S/C (R),"[1]; sample 0114 S16, LA Postive",2.66
same,Screen,"[1]; sample 0114 S16, LA Postive",137.4 s
same,Screen (Rs),"[1]; sample 0114 S16, LA Postive",2.77
same,Confirm,"[1]; sample 0114 S17, LA Postive",49.8 s
same,Confirm (Rc),"[1]; sample 0114 S17, LA Postive",0.99
same,S/C (NR),"[1]; sample 0114 S17, LA Postive",2.19
same,S/C (R),"[1]; sample 0114 S17, LA Postive",2.15
same,Screen,"[1]; sample 0114 S17, LA Postive",107.3 s
same,Screen (Rs),"[1]; sample 0114 S17, LA Postive",2.16
same,Normalized Ratio (NR) of SCT Assay,"[2]; LA positive sample 1:1 diluted with NPP, 1000 ng/ml PPACK, automated mixing study 1:1",1.82
same,Normalized Ratio (NR) of SCT Assay,"[2]; LA positive sample 1:3 diluted with NPP, 1000 ng/ml PPACK, automated mixing study 1:1",1.46
same,Normalized Ratio (NR) of SCT Assay,"[2]; LA positive sample diluted 4-fold with LA negative sample, 1000 nM PPACK (1.08 in the absence of PPACK)",1.46
same,Normalized Ratio (NR) of SCT Assay,"[2]; LA positive sample undiluted, 1000 ng/ml PPACK, automated mixing study 1:1 with NPP/PPACK",2.34
same,Screen-to-Confirm Ratio (R) of SCT Assay,"[2]; LA positive sample, 1000 nM PPACK (1.09 in the absence of PPACK)",1.82
same,Screen-to-Confirm Ratio (R) of SCT Assay,[3]; 100 nM PPACK (0.81 at 0 nM),0.83
same,Screen-to-Confirm Ratio (R) of SCT Assay,[3]; 1000 nM PPACK (0.81 at 0 nM),0.78
same,Change of Screen-to-Confirm Ratio of SCT Assay,"[3]; NPP / LA negative sample, increasing PPACK concentrations",remained the same; also recorded: decreased slightly
same,Screen-to-Confirm Ratio of dRVVT test,[4]; increasing PPACK concentrations (from 1.02),0.91
same,NR of dRVVT test,"[5]; LA positive sample 1:1 diluted with NPP, automated mixing study 1:1",1.42
same,NR of dRVVT test,"[5]; LA positive sample 1:3 diluted with NPP, automated mixing study 1:1",1.19
same,NR of dRVVT test,"[5]; LA positive sample undiluted, automated mixing study 1:1 with NPP/PPACK",1.76
same,Screen-to-Confirm Ratio of dRVVT test,"[5]; LA positive sample, increasing PPACK concentrations (from 1.42)",1.58
CC1CNc2c(cccc2S(=O)(=O)N[C@@H](CCCNC(=N)N)C(=O)N2CC[C@@H](C)C[C@@H]2C(=O)O)C1 (some centres unmarked) [argatroban],Screen-to-Confirm Ratio of dRVVT Assay,[4]; 500 ng/ml argatroban (1.06 in the absence of argatroban),0.9
same,Normalized ratio of dRVVT Assay,"[5]; LA positive sample, 500 ng/ml argatroban (from 1.34)",1.57
same,Change of Screen-to-Confirm Ratio of dRVVT Assay,"[5]; LA positive sample, argatroban",didn't change
hirudin,Screen-to-Confirm Ratio of dRVVT Assay,[4]; 1000 ng/ml hirudin (1.02 in the absence of hirudin),1.18
same,Normalized ratio of dRVVT Assay,"[5]; LA positive sample, 200 ng/ml hirudin alone",1.72
same,Normalized ratio of dRVVT Assay,"[5]; LA positive sample, 1000 ng/ml hirudin (1.39 without thrombin inhibitor)",1.81
same,Screen-to-Confirm Ratio of dRVVT Assay,"[5]; LA positive sample, 1000 ng/ml hirudin (1.41 in the absence of hirudin)",2.14
